The target in assay [1] is T1, Sodium- and chloride-dependent GABA transporter 3 (Mus musculus, UniProt P31650).
T1 sequence (P31650 whole entry): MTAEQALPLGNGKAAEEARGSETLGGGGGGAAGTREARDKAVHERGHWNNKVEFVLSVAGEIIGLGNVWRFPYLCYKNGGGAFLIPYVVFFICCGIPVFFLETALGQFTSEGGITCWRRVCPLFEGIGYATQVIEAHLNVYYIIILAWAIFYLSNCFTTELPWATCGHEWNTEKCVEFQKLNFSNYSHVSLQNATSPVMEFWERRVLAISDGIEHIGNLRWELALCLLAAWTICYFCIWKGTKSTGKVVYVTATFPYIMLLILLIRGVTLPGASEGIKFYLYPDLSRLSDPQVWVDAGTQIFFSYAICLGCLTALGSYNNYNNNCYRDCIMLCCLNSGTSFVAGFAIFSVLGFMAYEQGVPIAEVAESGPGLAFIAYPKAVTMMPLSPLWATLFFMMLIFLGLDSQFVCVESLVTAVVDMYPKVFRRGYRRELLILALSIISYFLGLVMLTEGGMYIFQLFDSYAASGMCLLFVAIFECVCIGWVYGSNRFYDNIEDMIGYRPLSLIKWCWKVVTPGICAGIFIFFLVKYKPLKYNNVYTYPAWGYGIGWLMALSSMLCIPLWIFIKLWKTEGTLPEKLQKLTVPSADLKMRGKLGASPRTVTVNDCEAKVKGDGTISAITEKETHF
The experiment in a line: Inhibition of mouse GAT3-mediated [3H]GABA uptake stably transfected in HEK293 cells.

Assay [2] concerns the target T2, Sodium- and chloride-dependent GABA transporter 2 (Mus musculus, UniProt P31649).
T2 sequence (P31649 whole entry): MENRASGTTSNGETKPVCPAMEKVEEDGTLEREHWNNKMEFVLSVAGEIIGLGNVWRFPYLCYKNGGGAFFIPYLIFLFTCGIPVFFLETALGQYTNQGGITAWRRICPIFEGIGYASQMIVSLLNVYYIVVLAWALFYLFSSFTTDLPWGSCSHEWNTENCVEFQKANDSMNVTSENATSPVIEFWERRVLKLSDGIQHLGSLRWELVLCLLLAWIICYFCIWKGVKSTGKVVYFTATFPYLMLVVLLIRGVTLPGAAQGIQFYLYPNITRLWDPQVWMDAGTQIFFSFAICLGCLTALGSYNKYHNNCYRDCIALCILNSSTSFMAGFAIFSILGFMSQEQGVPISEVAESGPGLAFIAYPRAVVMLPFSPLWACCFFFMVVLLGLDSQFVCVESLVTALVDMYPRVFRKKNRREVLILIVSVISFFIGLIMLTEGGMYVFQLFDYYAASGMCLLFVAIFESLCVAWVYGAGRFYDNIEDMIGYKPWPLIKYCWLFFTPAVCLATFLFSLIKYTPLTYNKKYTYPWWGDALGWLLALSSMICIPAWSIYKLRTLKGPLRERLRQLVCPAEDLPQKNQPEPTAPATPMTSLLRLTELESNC
In words: Inhibition of mouse GAT2-mediated [3H]GABA uptake stably transfected in HEK293 cells.

The source of these data is BindingDB's records for doi:10.1016/j.bmc.2013.06.038 (Jagiellonian University Medical College, 2013).

With `O=C(NCc1ccccc1Cl)C(CCO)NCCCC(c1ccccc1)c1ccccc1` (centres undefined), it took 18.2 µM to reach half-maximal inhibition in assay [1] (IC50).

Regarding `C[C@H](O)C[C@H](C(=O)NCc1ccc(F)cc1)N1CCC(=C(c2ccccc2)c2ccccc2)CC1`, the IC50 worked out at 100 µM in assay [2] and 55 µM in assay [1].

For the molecule `Cc1ccc(CNC(=O)[C@@H](C[C@H](C)O)N2CCC(=C(c3ccccc3)c3ccccc3)CC2)cc1`, the IC50 in assay [2] was 50.1 µM.

Consider `Cc1ccc(CNC(=O)C(CCO)N(C)CCC=C(c2ccccc2)c2ccccc2)cc1` (centres undefined), for which the values for the IC50 in assay [2] and in assay [1] were 14.5 µM and 11.7 µM, respectively.

The molecule `O=C(NCc1ccccc1)C(CCO)N1CCC(C(c2ccccc2)c2ccccc2)CC1` (centres undefined) gave an IC50 in assay [1] of 41.7 µM.

In assay [2], `Cc1ccc(CNC(=O)C(CCO)N2CCC(=C(c3ccccc3)c3ccccc3)CC2)cc1` (centres undefined) yielded an IC50 of 30.9 µM.

Turning to `CN(CCC=C(c1ccccc1)c1ccccc1)C(CCO)C(=O)NCc1ccccc1` (centres undefined), the IC50 in assay [2] came to 26.9 µM; in assay [1], 13.5 µM.

`C[C@@H](O)C[C@H](C(=O)NCc1ccccc1)N1CCC(=C(c2ccccc2)c2ccccc2)CC1`: the IC50 turned out to be 49 µM in assay [2] and 21.9 µM in assay [1].

As to `O=C(NCc1ccc(F)cc1)C(CCO)N1CCC(=C(c2ccccc2)c2ccccc2)CC1` (centres undefined), the IC50 in assay [2] came out at 16.6 µM; in assay [1] it was 28.2 µM.

Take `Cc1ccc(CNC(=O)C(CCO)NCCCC(c2ccccc2)c2ccccc2)cc1` (centres undefined): in assay [2], the 50% inhibitory concentration (IC50) was 17 µM.

As for `O=C(NCc1ccc(F)cc1)C(CCO)N1CCC(C(c2ccccc2)c2ccccc2)CC1` (centres undefined), the IC50 in assay [2] was found to be 55 µM; in assay [1], 34.7 µM.

In turn, `Cc1ccc(CNC(=O)C(CCO)N(C)CCCC(c2ccccc2)c2ccccc2)cc1` (centres undefined) showed an IC50 in assay [2] of 28.8 µM.

For the molecule `C[C@H](O)C[C@H](C(=O)NCc1ccccc1Cl)N1CCC(=C(c2ccccc2)c2ccccc2)CC1`, the IC50 in assay [1] came out at 28.8 µM.

Turning to `CN(CCCC(c1ccccc1)c1ccccc1)C(CCO)C(=O)NCc1ccccc1Cl` (centres undefined), the IC50 in assay [2] was determined as 28.8 µM; in assay [1], 16.2 µM.

As to `O=C(NCc1ccccc1Cl)C(CCO)N1CCC(C(c2ccccc2)c2ccccc2)CC1` (centres undefined), the IC50 amounted to 49 µM in assay [2] and 36.3 µM in assay [1].

With `O=C(NCc1ccccc1Cl)C(CCO)N1CCC(=C(c2ccccc2)c2ccccc2)CC1` (centres undefined), the results for the IC50 in assay [2] and in assay [1] were 75.9 µM and 56.2 µM, respectively.

Regarding `CN(CCCC(c1ccccc1)c1ccccc1)C(CCO)C(=O)NCc1ccc(Cl)cc1` (centres undefined), the IC50 in assay [1] was 13.2 µM.

`CN(CCC=C(c1ccccc1)c1ccccc1)C(CCO)C(=O)NCc1ccc(Cl)cc1` (centres undefined): the results for the IC50 in assay [2] and in assay [1] were 13.2 µM and 9.55 µM, respectively.

With `O=C(NCc1ccc(Cl)cc1)C(CCO)N1CCC(=C(c2ccccc2)c2ccccc2)CC1` (centres undefined), the IC50 in assay [2] was 19.5 µM.

Turning to `O=C(NCc1ccccc1)C(CCO)N1CCC(=C(c2ccccc2)c2ccccc2)CC1` (centres undefined), the IC50 is 46.8 µM in assay [2] and 37.2 µM in assay [1].

As for `CN(CCCC(c1ccccc1)c1ccccc1)C(CCO)C(=O)NCc1ccc(F)cc1` (centres undefined), the IC50 was determined as 41.7 µM in assay [2] and 38.9 µM in assay [1].

On to `O=C(NCc1ccc(Cl)cc1)C(CCO)NCCCC(c1ccccc1)c1ccccc1` (centres undefined), for which the results for the IC50 in assay [2] and in assay [1] were 11 µM and 14.8 µM, respectively.

`C[C@H](O)C[C@H](C(=O)NCc1ccccc1)N1CCC(=C(c2ccccc2)c2ccccc2)CC1`: the IC50 in assay [2] turned out to be 61.7 µM; in assay [1] it was 30.9 µM.

`CN(CCC=C(c1ccccc1)c1ccccc1)C(CCO)C(=O)NCc1ccccc1Cl` (centres undefined): 12.6 µM corresponded to half-maximal inhibition in assay [2] (IC50).

With `O=C(NCc1ccccc1)C(CCO)NCCCC(c1ccccc1)c1ccccc1` (centres undefined), the values for the IC50 in assay [2] and in assay [1] were 28.8 µM and 35.5 µM, respectively.

Molecule `CN(CCC=C(c1ccccc1)c1ccccc1)C(CCO)C(=O)NCc1ccc(F)cc1` (centres undefined) gave an IC50 in assay [1] of 11.2 µM.

Consider `O=C(NCc1ccc(Cl)cc1)C(CCO)N1CCC(C(c2ccccc2)c2ccccc2)CC1` (centres undefined), for which the IC50 in assay [2] was determined as 60.3 µM; in assay [1] it was 32.4 µM.

For `C[C@@H](O)C[C@H](C(=O)NCc1ccc(F)cc1)N1CCC(=C(c2ccccc2)c2ccccc2)CC1`, the values for the half-inhibitory concentration (IC50) in assay [2] and in assay [1] were 64.6 µM and 26.9 µM, respectively.

In the case of `O=C(NCc1ccc(F)cc1)C(CCO)NCCCC(c1ccccc1)c1ccccc1` (centres undefined), the IC50 in assay [2] came to 26.9 µM; in assay [1], 22.9 µM.

`C[C@H](O)C[C@H](C(=O)NCc1ccc(Cl)cc1)N1CCC(=C(c2ccccc2)c2ccccc2)CC1` returned an IC50 in assay [1] of 42.7 µM.

On to `Cc1ccc(CNC(=O)C(CCO)N2CCC(C(c3ccccc3)c3ccccc3)CC2)cc1` (centres undefined), for which the figures for the IC50 in assay [2] and in assay [1] were 38 µM and 42.7 µM, respectively.

For `CN(CCCC(c1ccccc1)c1ccccc1)C(CCO)C(=O)NCc1ccccc1` (centres undefined), the IC50 in assay [2] came to 39.8 µM; in assay [1], 32.4 µM.

`Cc1ccc(CNC(=O)[C@@H](C[C@@H](C)O)N2CCC(=C(c3ccccc3)c3ccccc3)CC2)cc1`: the half-inhibitory concentration (IC50) in assay [2] was 24 µM; in assay [1] it was 57.5 µM.

What is called IC50 is the concentration that inhibits the measured activity by half.
